Experimental data taken from article PMC8386128, “Evaluation of Short-Chain Antimicrobial Peptides With Combined Antimicrobial and Anti-inflammatory Bioactivities for the Treatment of Zoonotic Skin Pathogens From Canines” (Frontiers in Microbiology, 2021).
Like-named read-outs stand apart in the source and are kept apart here. No end group written: not given here.

Experiments:
[1] = system: S. pseudintermedius MW767056 skin infection; test: Mouse skin infection (abrasion) model; conditions: topical 50 μl at 6× MIC daily, n = 5; for bacterial counts of infected skin tissue: inoculum 5 × 10^6 CFU, mean
[2] = system: Staphylococcus pseudintermedius MW767056; conditions: peptide constant at 1/4 × MIC, 1 × 10^5 CFU/ml, triplicate
TNF-α = test: Western blotting of TNF-α in infected mouse skin; type: in vivo, BALB/c mice; conditions: day 1, vs saline-treated group, normalized to β-actin, n = 3
Experimental: To examine the expression of IL-6 and TNF-α at the protein level, immunoblotting was performed as reported previously ([Tang et al., 2017]). Proteins from dorsal skin tissues were extracted for Western blotting assays. Primary antibodies included anti-IL-6 (1:1,000, Abcam, Waltham, MA, United States) and anti-TNF-α (1:1,000, Abcam, United States). To verify equal sample loading, the membrane was incubated with rabbit polyclonal anti-β-actin antibody (1:1,000, Abcam, United States) as an internal control. Horseradish peroxidase-conjugated goat anti-rabbit IgG (1:5000, Abcam, United States) was used as the secondary antibody. The membranes were exposed under a chemiluminescent imaging analysis system (GE Healthcare Life Science, Danderyd, Sweden). Samples not treated with primary antibodies were considered negative controls. Relative levels of each protein were normalized to those of β-actin in each sample.

[3] = system: S. pseudintermedius MW767056; test: Bacteriolysis analysis (culture turbidity at 600 nm); type: cell-based, Staphylococcus pseudintermedius; conditions: 4× MIC, result in words
[4] = system: Staphylococcus cohnii MW767053; conditions: peptide constant at 1/4 × MIC, 1 × 10^5 CFU/ml, triplicate
[5] = system: S. pseudintermedius MW767056; test: Calcein leakage analysis (membrane permeabilization); type: cell-based, Staphylococcus pseudintermedius; conditions: 10× MIC, up to 1 h, triplicate, two independent experiments
[6] = system: Microsporum gypseum MW766983; conditions: 24 h
[7] = system: Proteus mirabilis MW767054; conditions: MW767054, 24 h
[8] = system: Trichophyton mentagrophytes MW766984; conditions: 24 h
[9] = system: Staphylococcus sciuri MW767055
[10] = system: Staphylococcus simulans MW767052
[11] = system: Staphylococcus cohnii MW767053
[12] = system: Staphylococcus haemolyticus MW767051
[13] = system: S. pseudintermedius MW767056 biofilm
S. cohnii MW767053 = conditions: peptide incubated in 25% FBS in RPMI-1640, 37°C, 4 h, then MIC at 1 × 10^5 CFU/ml; three replicates, two independent experiments
[14] = system: Staphylococcus pseudintermedius clinical isolates; conditions: triplicate; for MBC/MFC: 10 μl plated on MH plate, no colonies; for MIC: broth microdilution, MHB, 1 × 10^5 CFU/ml, 24 h, 37°C
[15] = system: S. pseudintermedius MW767056; conditions: three replicates, two independent experiments
[16] = system: sheep and mouse erythrocytes; test: Hemolysis assay; conditions: 4% erythrocyte suspension, 2 h, 37°C, absorption at 550 nm, triplicate
Experimental: The hemolysis assay was carried out by inoculating mammalian erythrocytes obtained from fresh defibrinated sheep and mouse blood (Thermo Fisher Scientific, Waltham, MA, United States) with the peptides. Briefly, peptides were incubated at 37°C with a 4% erythrocyte suspension with a twofold serial dilution series of peptides ranging from 512 to 1 μg/ml for 2 h. PBS and 1% nonionic detergent Triton X-100^TM (Sigma-Aldrich, St. Louis, MO, United States) diluted in PBS served as negative and positive controls, respectively. Cytolysis was evaluated by the measurement of absorption using a microplate reader at 550 nm. Experiments were done in triplicate. The hemolysis is derived from the following calculation:
Haemolysis%=A-APBS/ATriton-APBS×100%.
A represents the absorbance of samples treated with peptide, while APBS and ATriton indicate the absorbance of the negative and positive controls, respectively.

[17] = system: S. cohnii MW767053 biofilm
[18] = system: M. canis MW768151 biofilm
[19] = in combination with Allomyrinasin

CC1(C)S[C@@H]2[C@H](NC(=O)[C@H](N)c3ccc(O)cc3)C(=O)N2[C@H]1C(=O)O [Amoxicillin, amoxicillin]
bacterial counts of infected skin tissue ([1]; day 1): 5.94 log10 CFU/g | bacterial load in the liver ([1]; day 1): No bacterial load was detected | bacterial counts of infected skin tissue ([1]; day 3): 3.58 log10 CFU/g | S. pseudintermedius infection in the liver ([1]; day 3): completely prevented | FIC index [2, 19]: 0.281 | FIC index ([2]; in combination with Andricin B): indifferent interaction | expression level of TNF-α protein in infected skin (TNF-α): decreased | variation in culture turbidity (OD600) over 10 h [3]: not recorded | FIC index [4, 19]: 0.3125 | FIC index ([4]; in combination with Andricin B): 0.50 | calcein leakage (decrease in fluorescence intensity) [5]: no obvious disruptive reaction

GLLSGILGAGKKIVF [Nigrocin-HLM]
MBC/MFC [6]: 1 µg/mL | MBC/MFC [7]: 64 µg/mL

KWAVRIIRKFIKGFIS [Hs02]
MBC/MFC [6]: 0.5 µg/mL | MIC [6]: 0.5 µg/mL | MBC/MFC [8]: 1 µg/mL | MIC [8]: 1 µg/mL | MBC/MFC ([9]; 24 h): >256 µg/mL | MIC ([9]; 24 h): >256 µg/mL | MBC/MFC ([10]; 24 h): 64 µg/mL | MIC ([10]; 24 h): 64 µg/mL | MBC/MFC ([11]; 24 h): 32 µg/mL | MIC ([11]; 24 h): 32 µg/mL | MBC/MFC [7]: 128 µg/mL | MIC [7]: 128 µg/mL | MBC/MFC ([12]; 24 h): 128 µg/mL | MIC ([12]; 24 h): 128 µg/mL

GLTRLFSVIK [Andricin B]
MBC/MFC [6]: 2 µg/mL | MIC [6]: 2 µg/mL | MBC/MFC [8]: 1 µg/mL | MIC [8]: 1 µg/mL | MBC/MFC ([9]; strain MW767055, MBC, 10 μl plated on MH plate, no colonies, triplicate): >256 µg/mL | MIC ([9]; strain MW767055, broth microdilution, MHB, 1 × 10^5 CFU/ml, 24 h, 37°C, triplicate): >256 µg/mL | MBC/MFC ([10]; strain MW767052, MBC, 10 μl plated on MH plate, no colonies, triplicate): 256 µg/mL | MIC ([10]; strain MW767052, broth microdilution, MHB, 1 × 10^5 CFU/ml, 24 h, 37°C, triplicate): 256 µg/mL | MBIC ([13]; 24 h): 128 µg/mL | MBEC ([13]; 48 h): 256 µg/mL | FIC index [2, 19]: 0.3125 | MBC/MFC ([11]; strain MW767053, MBC, 10 μl plated on MH plate, no colonies, triplicate): 64 µg/mL | MIC after serum treatment (S. cohnii MW767053): 256 µg/mL | MBC/MFC [7]: >256 µg/mL | MIC [7]: >256 µg/mL | MBC/MFC ([12]; strain MW767051, MBC, 10 μl plated on MH plate, no colonies, triplicate): >256 µg/mL | MIC ([12]; strain MW767051, broth microdilution, MHB, 1 × 10^5 CFU/ml, 24 h, 37°C, triplicate): >256 µg/mL | MBC/MFC ([14]; strain MW767046): 32 µg/mL | MIC ([14]; strain MW767046): 32 µg/mL | MBC/MFC ([14]; strain MW767056): 32 µg/mL | MIC ([14]; strain MW767056): 32 µg/mL | MBC/MFC ([14]; strain MW793383): 32 µg/mL | MIC ([14]; strain MW793383): 32 µg/mL | MBC/MFC ([14]; strain MW793384): 128 µg/mL | MIC ([14]; strain MW793384): 128 µg/mL | MBC/MFC ([14]; strain MW793385): 64 µg/mL | MIC ([14]; strain MW793385): 64 µg/mL | MBC/MFC ([14]; strain MW793386): 64 µg/mL | MIC ([14]; strain MW793386): 64 µg/mL | MBC/MFC ([14]; strain MW793387): 128 µg/mL | MIC ([14]; strain MW793387): 128 µg/mL | MBC/MFC ([14]; strain MW793388): 64 µg/mL | MIC ([14]; strain MW793388): 64 µg/mL | MBC/MFC ([14]; strain MW793389): 128 µg/mL | MIC ([14]; strain MW793389): 128 µg/mL | MBC/MFC ([14]; strain MW793390): 128 µg/mL | MIC ([14]; strain MW793390): 128 µg/mL | MBC/MFC ([14]; strain MW793391): 32 µg/mL | MIC ([14]; strain MW793391): 32 µg/mL | MBC/MFC ([14]; strain MW793392): 64 µg/mL | MIC ([14]; strain MW793392): 64 µg/mL | MIC without serum treatment ([15]; 1 × 10^5 CFU/ml): 32 µg/mL | MIC after serum treatment ([15]; peptide incubated in 25% FBS in RPMI-1640, 37°C, 4 h, then MIC at 1 × 10^5 CFU/ml): 64 µg/mL | FIC index [4, 19]: 0.50 | hemolytic activity at lower concentrations ([16]; 1 to 64 μg/ml): little or no obvious hemolytic activity | hemolytic activity at high concentrations ([16]; >64 μg/ml): slight hemolytic activity | MBIC ([17]; 24 h): 256 µg/mL | MBEC ([17]; 48 h): >256 µg/mL | MBIC ([18]; 24 h): 4 µg/mL | MBEC ([18]; 48 h): 16 µg/mL
